Four molecules from patent US7282508B2, “Substituted 4-phenyl-4-(1H-imidazol-2-yl)-piperidine derivatives and their use as selective non-peptide delta opioid agonists” (Janssen Pharmaceutica N.V., priority 2001, dated 2007) can be followed below.

Each structure is given as a SMILES string.

In turn, `CCOC(=O)N1CCC(c2ccccc2)(c2nccn2Cc2ccc(C(=O)O)cc2)CC1` [Compound 8] displayed a melting point of 251.6 °C.

Molecule `O=C(c1ccccc1)N1CCC(c2ccccc2)(c2nccn2Cc2ccccc2)CC1` [Compound 2] displayed a melting point of 122.7 °C.

Molecule `CCOC(=O)N1CCC(c2ccccc2)(c2nccn2Cc2ccc(C(=O)OC)cc2)CC1` [Compound 3] returned a melting point of 149.1 °C.

In the case of `CCN/C(=N/C#N)N1CCC(c2ccccc2)(c2nccn2Cc2ccccc2)CC1` [Compound 4], the melting point turned out to be 84.2 °C.

Usually melting point stands for the temperature, or range, at which the solid turns liquid.
